In publication PMC6934184, “Selective DNA-PKcs inhibition extends the therapeutic index of localized radiotherapy and chemotherapy” (The Journal of Clinical Investigation, 2019):

Biological target: T1, EGFR (ErbB1) T790M (Homo sapiens, UniProt P00533, T790M)
T1 construct: purchased Thermo Fisher Scientific (Life Technologies) SelectScreen
Assay: SelectScreen Z'LYTE
Assay type: biochemical
Procedure, shortened: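 Percent values come from Thermo SelectScreen profiling of NU5455, combining activity and binding assays. CSF1R was run in Z'LYTE format at Km app ATP, and CAMK1 in Adapta format with ATP listed at 10.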

T1 sequence (P00533 25-1210 T790M): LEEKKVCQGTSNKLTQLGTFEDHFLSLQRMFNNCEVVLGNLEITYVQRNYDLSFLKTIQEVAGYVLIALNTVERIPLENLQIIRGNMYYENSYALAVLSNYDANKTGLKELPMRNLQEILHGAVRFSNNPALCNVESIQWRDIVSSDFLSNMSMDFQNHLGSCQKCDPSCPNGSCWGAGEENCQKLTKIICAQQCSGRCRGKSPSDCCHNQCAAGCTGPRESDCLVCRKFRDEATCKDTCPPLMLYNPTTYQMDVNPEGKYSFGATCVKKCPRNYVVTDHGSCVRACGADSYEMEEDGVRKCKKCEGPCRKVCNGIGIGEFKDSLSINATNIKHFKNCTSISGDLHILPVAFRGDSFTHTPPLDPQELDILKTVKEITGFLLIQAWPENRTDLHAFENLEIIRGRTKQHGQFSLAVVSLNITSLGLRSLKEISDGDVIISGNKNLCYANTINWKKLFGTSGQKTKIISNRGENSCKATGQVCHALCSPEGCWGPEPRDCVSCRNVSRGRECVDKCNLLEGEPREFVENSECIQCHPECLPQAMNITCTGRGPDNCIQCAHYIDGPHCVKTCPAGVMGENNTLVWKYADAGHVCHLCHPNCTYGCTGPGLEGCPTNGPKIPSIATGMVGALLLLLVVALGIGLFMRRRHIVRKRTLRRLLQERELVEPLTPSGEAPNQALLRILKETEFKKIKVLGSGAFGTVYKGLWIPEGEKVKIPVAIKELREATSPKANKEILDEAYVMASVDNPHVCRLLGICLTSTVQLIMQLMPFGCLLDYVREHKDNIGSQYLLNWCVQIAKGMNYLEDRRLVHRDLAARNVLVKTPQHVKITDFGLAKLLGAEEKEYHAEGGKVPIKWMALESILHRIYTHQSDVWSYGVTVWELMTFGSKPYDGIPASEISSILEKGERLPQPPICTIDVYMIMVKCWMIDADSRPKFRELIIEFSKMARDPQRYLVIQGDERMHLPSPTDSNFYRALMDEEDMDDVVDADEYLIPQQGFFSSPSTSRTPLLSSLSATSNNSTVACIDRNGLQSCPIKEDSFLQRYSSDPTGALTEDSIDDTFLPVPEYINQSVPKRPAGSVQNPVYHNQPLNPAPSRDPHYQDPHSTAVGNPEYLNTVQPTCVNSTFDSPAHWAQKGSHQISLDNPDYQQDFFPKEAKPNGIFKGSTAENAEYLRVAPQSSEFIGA

`CN(C(=O)CN1CCOCC1)c1ccc2sc3c(-c4cccc5c(=O)cc(N6CC7CCC(C6)O7)oc45)cccc3c2c1` [NU5455] was tested, and the inhibition at 1 µM was -3.3%.
